What was measured:
A549 = test: Antiproliferative activity against human A549 cells assessed as reduction in cell viability measured after 72 hrs; assay type: functional, cell-based; conditions: A549, 72 h
HCT-116 = test: Antiproliferative activity against human HCT-116 cells assessed as reduction in cell viability measured after 72 hrs; assay type: functional, cell-based; conditions: HCT-116, 72 h
HT-29 = test: Antiproliferative activity against human HT-29 cells assessed as reduction in cell viability measured after 72 hrs; assay type: functional, cell-based; conditions: HT-29, 72 h
MV4-11 [1] = test: Induction of apoptosis in human MV4-11 cells assessed as viable cells at 4 uM incubated for 24 hrs by AnnexinV-FITC/PI staining based flow cytometry (reference value: 93.4%); assay type: functional; conditions: read-out: Activity
MV4-11 [2] = test: Induction of apoptosis in human MV4-11 cells assessed as necrotic cells at 1 uM incubated for 24 hrs by AnnexinV-FITC/PI staining based flow cytometry (reference value: 0%); assay type: functional
MV4-11 [3] = test: Antiproliferative activity against human MV4-11 cells assessed as reduction in cell viability measured after 72 hrs; assay type: functional, cell-based; conditions: MV4-11, 72 h
[4] = biological target: CDK9/cyclin T1 (Homo sapiens) (UniProt O60563+P50750); test: Inhibition of CDK9/CyclinT1 (unknown origin) at 100 nM by ADP-Glo assay relative to control; assay type: protein-complex assay
MV4-11 [5] = test: Induction of apoptosis in human MV4-11 cells assessed as late apoptotic cells at 4 uM incubated for 24 hrs by AnnexinV-FITC/PI staining based flow cytometry (reference value: 5.21%); assay type: functional
BT-549 = test: Antiproliferative activity against human BT-549 cells assessed as reduction in cell viability measured after 72 hrs; assay type: functional, cell-based; conditions: BT-549, 72 h
[6] = biological target: Mitogen-activated protein kinase kinase kinase kinase 2 (Homo sapiens) (UniProt Q12851); test: Inhibition of wild type partial length human MAP4K2 (1 to 318 residues) expressed in mammalian expression system at 1 uM by KINOMEscan analysis
Mitogen-activated protein kinase kinase kinase kinase 2 (Homo sapiens), sequence (Q12851 whole entry, the tested form may be a part): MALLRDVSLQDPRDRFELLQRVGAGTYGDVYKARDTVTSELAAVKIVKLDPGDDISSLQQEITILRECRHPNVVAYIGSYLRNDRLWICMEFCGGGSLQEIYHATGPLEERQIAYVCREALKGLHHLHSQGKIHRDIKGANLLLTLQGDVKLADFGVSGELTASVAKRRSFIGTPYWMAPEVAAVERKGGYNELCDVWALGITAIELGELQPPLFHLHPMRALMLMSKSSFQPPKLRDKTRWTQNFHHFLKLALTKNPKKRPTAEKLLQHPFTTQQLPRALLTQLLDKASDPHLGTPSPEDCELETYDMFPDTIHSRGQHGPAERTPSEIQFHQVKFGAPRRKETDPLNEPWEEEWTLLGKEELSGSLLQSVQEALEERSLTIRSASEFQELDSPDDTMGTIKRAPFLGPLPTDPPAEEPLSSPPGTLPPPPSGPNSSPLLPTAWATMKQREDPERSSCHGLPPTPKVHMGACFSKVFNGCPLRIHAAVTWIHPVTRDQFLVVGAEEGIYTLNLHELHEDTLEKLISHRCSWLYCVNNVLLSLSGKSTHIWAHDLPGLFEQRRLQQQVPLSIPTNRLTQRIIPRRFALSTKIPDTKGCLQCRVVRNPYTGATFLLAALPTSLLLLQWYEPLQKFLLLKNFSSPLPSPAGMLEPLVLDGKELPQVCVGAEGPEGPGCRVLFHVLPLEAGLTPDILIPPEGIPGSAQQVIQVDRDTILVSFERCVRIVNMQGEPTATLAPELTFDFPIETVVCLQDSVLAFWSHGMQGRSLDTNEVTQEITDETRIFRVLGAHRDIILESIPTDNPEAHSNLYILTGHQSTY

MV4-11 [7] = test: Induction of apoptosis in human MV4-11 cells assessed as increase in cleaved PARP-1 protein expression incubated for 24 hrs by western blot analysis; assay type: functional, cell-based; conditions: dose 0.1-4 µM

`COc1cc(O)c2c(=O)cc(-c3ccc(N4CCN(C)CC4)cc3)oc2c1C1=CCN(C)CC1` gave an IC50 (A549) of 700 nM, an IC50 (HCT-116) of 20 nM and an IC50 (HT-29) of 1060 nM. The viability at 4 µM (MV4-11 [1]) was 7.98%, the Activity (MV4-11 [2]) was 0.01% and the IC50 (MV4-11 [3]) was 60 nM. The inhibition [4] was 98.9%, the Activity (MV4-11 [5]) was 21.3% and the IC50 (BT-549) was 210 nM. For the same molecule, the inhibition [6] was 9.9% and the Activity (MV4-11 [7]) was “Dose-Dependent Effect”.

Source: ChEMBL document CHEMBL5634084, “Design and optimization of selective and potent CDK9 inhibitors with flavonoid scaffold for the treatment of acute myeloid leukemia” (Eur J Med Chem, 2023)
